The target of the assay is Intermediate conductance calcium-activated potassium channel protein 4 (Homo sapiens, UniProt O15554). The assay is described as follows: Inhibition of human KCa3.1 overexpressed in HEK293 cells assessed as thallium influx preincubated for 15 mins followed by thallium/ionomycin addition measured for 50 secs by FLIPR assay. In kind it is cell-based.

Drawing on ChEMBL document CHEMBL3286343, “Fused Thiazin-3-ones as KCa3.1 Inhibitors” (ACS Med Chem Lett, 2014), this text covers IC50 for two compounds.

Broadly, the IC50 is the concentration that inhibits the measured activity by half.

Intermediate conductance calcium-activated potassium channel protein 4, sequence (O15554 whole entry): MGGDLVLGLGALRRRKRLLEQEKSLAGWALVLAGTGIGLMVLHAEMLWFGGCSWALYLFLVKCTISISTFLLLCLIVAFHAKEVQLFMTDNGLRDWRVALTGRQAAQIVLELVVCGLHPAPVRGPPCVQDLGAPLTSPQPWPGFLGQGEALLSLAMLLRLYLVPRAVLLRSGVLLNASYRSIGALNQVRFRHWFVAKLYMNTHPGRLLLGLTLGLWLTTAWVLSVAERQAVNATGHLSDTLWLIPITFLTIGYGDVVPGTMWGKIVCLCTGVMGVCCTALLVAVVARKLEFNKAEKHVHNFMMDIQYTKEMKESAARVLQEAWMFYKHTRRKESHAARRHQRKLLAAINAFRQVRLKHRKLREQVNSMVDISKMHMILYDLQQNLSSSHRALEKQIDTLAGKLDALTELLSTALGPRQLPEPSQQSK

For the compound `CC(c1ccc(F)c(OC(F)(F)F)c1)N1C(=O)CSc2ncsc21` (configuration not stated), the IC50 was found to be 0.06 µM.

For `CC(c1ccc(F)c(OC(F)(F)F)c1)N1C(=O)CS(=O)(=O)c2ccsc21` (configuration not stated), the IC50 came out at 0.039 µM.
